Laboratory results from US20150232856A1, “TELOMERASE INHIBITORS FOR USE IN THERAPY” (AGENCY FOR SCIENCE, TECHNOLOGY AND RESEARCH, priority 2012, published 2015).

Tested on: A2780cp cells
Test: Colony formation assay
Format: cell-based, human
Settings: significantly rescued by ectopic expression of p65 (FIGS. 1G & H)
Protocol: F. Colony formation assay: A2780cp cells were infected with p65 expressing or GFP (Cntrl) virus followed by plating 1000 cells per condition. The cells were then treated with 2 μM MST312 or DMSO control for 2 weeks followed by staining with crystal violet after 12 days. Number of colonies was counted from duplicate plates.

sh-hTERT: shRNA directed against hTERT, SEQ ID NO: 48 (CATTTCATCAGCAAGTTTGGA)
colony forming ability of cells: reduction in colony forming ability
